According to patent US12448371B2, “Inhibitor compounds” (Cincera Therapeutics Pty Ltd, priority 2019, dated 2025):
Counter-ions that a name gives are not always drawn.

Target: T1, Des1 (h) (Homo sapiens, UniProt O15121)
T1 construct: endogenous in cells; host or cells: parental Jurkat cells
T1 sequence (O15121 1-323): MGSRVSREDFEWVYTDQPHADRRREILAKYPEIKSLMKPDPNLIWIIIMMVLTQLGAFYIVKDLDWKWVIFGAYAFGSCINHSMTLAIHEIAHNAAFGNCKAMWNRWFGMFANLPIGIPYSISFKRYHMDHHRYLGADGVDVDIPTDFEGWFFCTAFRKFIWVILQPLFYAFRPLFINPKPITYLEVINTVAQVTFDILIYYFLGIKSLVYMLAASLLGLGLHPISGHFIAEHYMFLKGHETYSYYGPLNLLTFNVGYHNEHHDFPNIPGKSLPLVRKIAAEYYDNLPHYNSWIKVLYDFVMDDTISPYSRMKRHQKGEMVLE
Assay: Measurement of Dihydroceramide Desaturase-1 (Des-1) activity in intact Jurkat cells labeled with DhCer-C6-NBD (HPLC)
Type: cell-based
Conditions: Jurkat cells; 0.1 μM
Method: Measurement of Dihydroceramide Desaturase-1 (Des-1) Activity
Compounds were assessed for Des-1 inhibitory activity. Measurement of Des1 activity was performed by HPLC using intact Jurkat cells labeled with DhCer-C6-NBD as described previously (Munoz-Olaya, J. M. et al. ChemMedChem 2008, 3, 946-953) with modifications to enhance sensitivity and reproducibility. These modifications included the use of parental Jurkat cells, 0.5% serum in the culture media, and cell harvesting via centrifugation at 500×g to maximise ceramide extraction. Extracted samples (50 ul) were analysed on a Waters HPLC coupled to a fluorescence detector using a 30 cm C18 reverse-phase column eluted with 1 ml/min 20% H2O and 80% acetonitrile, both with a 0.1% of trifluoroacetic acid. NBD-labelled substrate and product were quantitated with an excitation and emission wavelengths of 465 nm and 530 nm, respectively.

SMILES	% inhibition of Des1 at 0.1 μM [%]
N/C(=N\O)c1ncc(Nc2ncc(-c3ccc(C(F)(F)F)cn3)o2)cc1F [Example 56, 3-Fluoro-N′-hydroxy-5-((5-(5-(trifluoromethyl)pyridin-2-yl)oxazol-2-yl)amino)picolinimidamide]	86

Same assay, conditions: Jurkat cells; 1 μM

SMILES	inhibition at 1 µM [%]	% inhibition of Des1 at 1 μM
CN(O)S(=O)(=O)c1ccc(Nc2ncc(-c3ccc(C(F)(F)F)cc3)o2)cn1 [Example 15, N-Hydroxy-N-methyl-5-((5-[4-(trifluoromethyl)phenyl]-1,3-oxazol-2-yl)amino) pyridine-2-sulfonamide]	46	–
Cc1cc(Nc2ncc(-c3ccc(C(F)(F)F)cc3)o2)cnc1C(=O)N(C)O [Example 21, N-Hydroxy-N,3-dimethyl-5-((5-(4-(trifluoromethyl)phenyl)oxazol-2-yl)amino)picolinamide]	38	–
CC(C)N(O)C(=O)c1ccc(Nc2ncc(-c3ccc(C(F)(F)F)cc3)o2)cn1 [Example 34, N-Hydroxy-N-isopropyl-5-((5-(4-(trifluoromethyl)phenyl)oxazol-2-yl)amino)picolinamide]	23	–
O=C(NC[C@H](O)CO)c1ccc(Nc2ncc(-c3ccc(C(F)(F)F)cc3)o2)cn1 [Example 37, (S)—N-(2,3-Dihydroxypropyl)-5-((5-(4-(trifluoromethyl)phenyl)oxazol-2-yl)amino)picolinamide]	–	no inhibition
O=C(NC[C@@H](O)CO)c1ccc(Nc2ncn(-c3ccc(C(F)(F)F)cc3)n2)cn1 [Example 38, (R)—N-(2,3-Dihydroxypropyl)-5-((1-(4-(trifluoromethyl)phenyl)-1H-1,2,4-triazol-3-yl)amino)picolinamide]	30	–
N/C(=N\O)c1ncc(Nc2ncc(-c3ccc(C(F)(F)F)cn3)o2)cn1 [Example 58, N′-Hydroxy-5-((5-(5-(trifluoromethyl)pyridin-2-yl)oxazol-2-yl)amino)pyrimidine-2-carboximidamide]	40	–

Same assay, conditions: Jurkat cells; 10 μM

SMILES	% inhibition of Des1 at 10 μM [%]
O=C(c1ccc(Nc2ncc(-c3ccc(C(F)(F)F)cc3)o2)cn1)N(O)CCO [Example 22, N-Hydroxy-N-(2-hydroxyethyl)-5-((5-(4-(trifluoromethyl)phenyl)oxazol-2-yl)amino)picolinamide]	81

Same assay, conditions: intact Jurkat cells; given as concentration range, or <X / >X if measured at one concentration X only; read-out: Des1 (h) Jurkat IC50

SMILES	IC50 [nM]
O=C(NO)c1ccc(Nc2nc(-c3ccc(C(F)(F)F)cc3)co2)cn1 [Example 14, N-Hydroxy-5-((4-[4-(trifluoromethyl)phenyl]-1,3-oxazol-2-yl)amino)picolinamide]	100 to 1000
CN(O)S(=O)(=O)c1ccc(Nc2ncc(-c3ccc(C(F)(F)F)cc3)o2)cn1 [Example 15, N-Hydroxy-N-methyl-5-((5-[4-(trifluoromethyl)phenyl]-1,3-oxazol-2-yl)amino) pyridine-2-sulfonamide]	> 1000
Oc1ccc(Nc2ncc(-c3ccc(C(F)(F)F)cc3)o2)nc1 [Example 18, 6-((5-(4-(Trifluoromethyl)phenyl)oxazol-2-yl)amino)pyridin-3-ol]	< 1000
O=C(NCCO)c1ccc(Nc2ncc(-c3ccc(C(F)(F)F)cc3)o2)cn1 [Example 19, N-(2-Hydroxyethyl)-5-((5-(4-(trifluoromethyl)phenyl)oxazol-2-yl)amino)picolinamide]	1000 to 10000
Cc1cc(Nc2ncc(-c3ccc(C(F)(F)F)cc3)o2)cnc1C(=O)N(C)O [Example 21, N-Hydroxy-N,3-dimethyl-5-((5-(4-(trifluoromethyl)phenyl)oxazol-2-yl)amino)picolinamide]	> 1000
CN(O)C(=O)c1ccc(Nc2ncn(-c3ccc(C(F)(F)F)cc3)n2)cn1 [Example 25, N-Hydroxy-N-methyl-5-((1-(4-(trifluoromethyl)phenyl)-1H-1,2,4-triazol-3-yl)amino)picolinamide]	< 1000
N/C(=N\O)c1ncc(Nc2ncc(-c3ccc(C(F)(F)F)cc3)o2)cc1O [Example 26, N′,3-Dihydroxy-5-((5-(4-(trifluoromethyl)phenyl)oxazol-2-yl)amino)picolinimidamide]	1 to 10
Cc1cc(Nc2ncc(-c3ccc(C(F)(F)F)cc3)o2)cc(=O)n1O [Example 27, 1-Hydroxy-6-methyl-4-((5-(4-(trifluoromethyl)phenyl)oxazol-2-yl)amino)pyridin-2(1H)-one]	0.1 to 1
CN(O)C(=O)c1ncc(Nc2ncc(-c3ccc(C(F)(F)F)cc3)o2)cc1O [Example 28, N,3-Dihydroxy-N-methyl-5-((5-(4-(trifluoromethyl)phenyl)oxazol-2-yl)amino)picolinamide]	< 1000
O=c1c(O)c(Nc2ccc(Nc3ncc(-c4ccc(C(F)(F)F)cc4)o3)cn2)c1=O [Example 30, 3-Hydroxy-4-((5-((5-(4-(trifluoromethyl)phenyl)oxazol-2-yl)amino)pyridin-2-yl)amino)cyclobut-3-ene-1,2-dione]	< 1000
N/C(=N\O)c1ncc(Nc2ncn(-c3ccc(C(F)(F)F)cc3)n2)cc1O [Example 31, N′,3-Dihydroxy-5-((1-(4-(trifluoromethyl)phenyl)-1H-1,2,4-triazol-3-yl)amino)picolinimidamide]	< 1000
CCN(O)C(=O)c1ccc(Nc2ncc(-c3ccc(C(F)(F)F)cc3)o2)cn1 [Example 32, N-Ethyl-N-hydroxy-5-((5-(4-(trifluoromethyl)phenyl)oxazol-2-yl)amino)picolinamide]	< 1000
CC(C)N(O)C(=O)c1ccc(Nc2ncc(-c3ccc(C(F)(F)F)cc3)o2)cn1 [Example 34, N-Hydroxy-N-isopropyl-5-((5-(4-(trifluoromethyl)phenyl)oxazol-2-yl)amino)picolinamide]	> 1000
CN(O)C(=O)Nc1ccc(Nc2ncc(-c3ccc(C(F)(F)F)cc3)o2)cn1 [Example 35, 1-Hydroxy-1-methyl-3-(5-((5-(4-(trifluoromethyl)phenyl)oxazol-2-yl)amino)pyridin-2-yl)urea]	10 to 100
O=C(NC[C@@H](O)CO)c1ccc(Nc2ncc(-c3ccc(C(F)(F)F)cc3)o2)cn1 [Example 36, (R)—N-(2,3-Dihydroxypropyl)-5-((5-(4-(trifluoromethyl)phenyl)oxazol-2-yl)amino)picolinamide]	1 to 10
O=C(NC[C@H](O)CO)c1ccc(Nc2ncc(-c3ccc(C(F)(F)F)cc3)o2)cn1 [Example 37, (S)—N-(2,3-Dihydroxypropyl)-5-((5-(4-(trifluoromethyl)phenyl)oxazol-2-yl)amino)picolinamide]	> 1000

SMILES	IC50 [nM]
O=C(NC[C@@H](O)CO)c1ccc(Nc2ncn(-c3ccc(C(F)(F)F)cc3)n2)cn1 [Example 38, (R)—N-(2,3-Dihydroxypropyl)-5-((1-(4-(trifluoromethyl)phenyl)-1H-1,2,4-triazol-3-yl)amino)picolinamide]	> 1000
Cc1nc(Nc2cnc(/C(N)=N/O)c(O)c2)oc1-c1ccc(C(F)(F)F)cc1 [Example 39, N′,3-Dihydroxy-5-((4-methyl-5-(4-(trifluoromethyl)phenyl)oxazol-2-yl)amino)picolinimidamide]	< 1000
N/C(=N\O)c1ncc(Nc2ncc(-c3ccc(C(F)(F)F)cn3)o2)cc1O [Example 40, N′,3-Dihydroxy-5-((5-(5-(trifluoromethyl)pyridin-2-yl)oxazol-2-yl)amino)picolinimidamide hydrochloride]	10 to 100
O=C(NC[C@@H](O)CO)c1ccc(Nc2ncc(-c3ccc(C(F)(F)F)cc3)o2)nn1 [Example 41, (R)—N-(2,3-Dihydroxypropyl)-6-((5-(4-(trifluoromethyl)phenyl)oxazol-2-yl)amino)-pyridazine-3-carboxamide]	< 100
N/C(=N\O)c1ncc(Nc2ncc(-c3ccc(C(F)(F)F)c(F)c3)o2)cc1O [Example 43, 5-((5-(3-Fluoro-4-(trifluoromethyl)phenyl)oxazol-2-yl)amino)-N′,3-dihydroxypicolinimidamide]	1 to 10
O=C(NC[C@@H](O)CO)c1ccc(Nc2ncc(-c3ccc(C(F)(F)F)c(F)c3)o2)cn1 [Example 44, (R)—N-(2,3-Dihydroxypropyl)-5-((5-(3-fluoro-4-(trifluoromethyl)phenyl)oxazol-2-yl)amino)picolinamide]	1 to 10
N/C(=N\O)c1ccc(Nc2ncc(-c3ccc(C(F)(F)F)c(F)c3)o2)cn1 [Example 45, 5-((5-(3-Fluoro-4-(trifluoromethyl)phenyl)oxazol-2-yl)amino)-N′-hydroxypicolinimidamide]	< 100
N=C(NO)c1ccc(Nc2ncc(-c3ccc(F)cc3)o2)nn1 [Example 47, 6-((5-(4-Fluorophenyl)oxazol-2-yl)amino)-N′-hydroxypyridazine-3-carboximidamide]	< 100
N=C(NO)c1ccc(Nc2ncc(-c3ccc(F)c(F)c3)o2)nn1 [Example 48, 6-((5-(3,4-Difluorophenyl)oxazol-2-yl)amino)-N′-hydroxypyridazine-3-carboximidamide]	1 to 10
N=C(NO)c1ccc(Nc2ncc(-c3ccc(F)cn3)o2)nn1 [Example 49, 6-((5-(5-Fluoropyridin-2-yl)oxazol-2-yl)amino)-N′-hydroxypyridazine-3-carboximidamide]	< 100
N=C(NO)c1cc(Nc2ncc(-c3ccc(C(F)(F)F)cc3)o2)ncc1O [Example 50, N,5-Dihydroxy-2-((5-(4-(trifluoromethyl)phenyl)oxazol-2-yl)amino)isonicotinimid-amide]	< 1000
N/C(=N\O)c1ccc(Nc2ncc(-c3ccc(OC(F)F)cc3)o2)cn1 [Example 51, 5-((5-(4-(Difluoromethoxy)phenyl)oxazol-2-yl)amino)-N′-hydroxy picolinimidamide]	100 to 1000
N/C(=N\O)c1ccc(Nc2ncc(-c3ccc(C(F)F)cc3)o2)cn1 [Example 52, 5-((5-(4-(Difluoromethyl)phenyl)oxazol-2-yl)amino)-N′-hydroxypicolinimidamide]	100 to 1000
N/C(=N\O)c1ccc(Nc2ncc(-c3ccc(C(F)(F)F)cc3)o2)nn1 [Example 53, N′-Hydroxy-6-((5-(4-(trifluoromethyl)phenyl)oxazol-2-yl)amino)pyridazine-3-carboximidamide]	1 to 10
N/C(=N\O)c1ncc(Nc2ncc(-c3ccc(C(F)(F)F)cn3)o2)cn1 [Example 58, N′-Hydroxy-5-((5-(5-(trifluoromethyl)pyridin-2-yl)oxazol-2-yl)amino)pyrimidine-2-carboximidamide]	> 1000
N/C(=N\O)c1ccc(Nc2ncc(-c3ccc(C(F)(F)F)nc3)o2)cn1 [Example 59, N′-Hydroxy-5-((5-(6-(trifluoromethyl)pyridin-3-yl)oxazol-2-yl)amino)picolinimidamide]	< 1000
